Results from the supplement of paper PMC10307832.

Assays:
Test in all cases: relative viability (nuclei count vs DMSO), 5 days (fraction); higher = more cells survive
[1] = compound: NS(=O)(=O)OC[C@@H]1C[C@@H](n2ccc3c(N[C@H]4CCc5ccccc54)ncnc32)C[C@@H]1O [MLN4924]
Method in brief: (§1)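 Vehicle-anchored 1536-well plates of lung cancer cell lines, held overnight at 37 °C, were pinned with five library-drug doses (not always all listed) spaced by √10. No medium change followed over the next 5 days, after which the cells were fixed, permeabilised and Hoechst-stained together and imaged at 4×. Nuclei were counted with MetaXpress, and viability is treated-well nuclei over vehicle-well nuclei, taken as a median across plates. Plates passed with control CV below 25% and at least one doubling.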

[2] = compound: C1CC(C1)(C(=O)O)C(=O)O.[NH2-].[NH2-].[Pt+2] [Carboplatin]
Method in brief: as §1

[3] = compound: CC[C@H](C)N1C=C(C2=C(C=C(C=C21)C3=CN=C(C=C3)N4CCNCC4)C(=O)NCC5=C(C=C(NC5=O)C)C)C [GSK126]
Method in brief: as §1

[4] = compound: C1CC(C1)(C(=O)O)C(=O)O.[NH2-].[NH2-].[Pt+2] [Carboplatin] + CC(=O)Nc1cccc(-n2c(=O)n(C3CC3)c(=O)c3c(Nc4ccc(I)cc4F)n(C)c(=O)c(C)c32)c1 [Trametinib] (partner 0.02 µM)
Method in brief: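 Nuclei were stained with Hoechst during a one-step fixation (final 0.05% Triton X-100, 1% formaldehyde, 1 ug/ml Hoechst) carried out 5 days after dosing, then counted on 4× images. The cells, lung cancer lines in 1536-well plates, had been dosed by pin tool the day after seeding with one drug alone or a fixed anchor-drug dose plus five library-drug doses (not always all listed) in √10 steps. Relative viability is the nuclei count in treated wells divided by that in vehicle wells, and each value is the median of duplicate plates.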

| Cell Line | relative viability ([1]; 0.04 µM) | relative viability ([1]; 0.1265 µM) | relative viability ([1]; 0.4 µM) | relative viability ([1]; 1.265 µM) | relative viability ([1]; 4 µM) | relative viability ([2]; 0.08 µM) | relative viability ([2]; 0.253 µM) | relative viability ([2]; 0.8 µM) | relative viability ([2]; 2.53 µM) | relative viability ([2]; 8 µM) | relative viability ([3]; 0.08 µM) | relative viability ([3]; 0.253 µM) | relative viability ([3]; 0.8 µM) | relative viability ([3]; 2.53 µM) | relative viability ([3]; 8 µM) | relative viability ([4]; first compound 0.08 µM) | relative viability ([4]; first compound 0.253 µM) | relative viability ([4]; first compound 0.8 µM) | relative viability ([4]; first compound 2.53 µM) | relative viability ([4]; first compound 8 µM) |
| --- | --- | --- | --- | --- | --- | --- | --- | --- | --- | --- | --- | --- | --- | --- | --- | --- | --- | --- | --- | --- |
| CAL-12T | 0.854 | 0.82 | 0.485 | 0.344 | 0.198 | 1.02 | 1.04 | 1 | 1.07 | 0.877 | 1.09 | 0.986 | 0.973 | 1.07 | 1.17 | 0.385 | 0.352 | 0.299 | 0.33 | 0.365 |
| NCI-H322M | 1.26 | 1.3 | 0.684 | 0.273 | 0.35 | 1.1 | 0.918 | 0.984 | 0.969 | 0.931 | 0.925 | 0.959 | 0.992 | 1.09 | 0.968 | 0.543 | 0.488 | 0.537 | 0.552 | 0.525 |
| NCI-H2126 | 1.03 | 1.02 | 0.785 | 0.459 | 0.373 | 1.05 | 1.03 | 1.02 | 0.946 | 0.948 | 1.04 | 1.02 | 1.06 | 1.07 | 1 | 0.586 | 0.613 | 0.562 | 0.614 | 0.536 |
| NCI-H596 | 0.973 | 1.1 | 0.554 | 0.854 | 0.739 | 0.993 | 0.995 | 0.938 | 0.826 | 0.752 | 0.983 | 0.9 | 0.965 | 1.01 | 0.981 | 0.846 | 0.845 | 0.722 | 0.645 | 0.518 |
| LU99A | 0.918 | 0.601 | 0.405 | 0.178 | 0.195 | 1.15 | 1.08 | 1.03 | 0.901 | 0.702 | 1.04 | 0.985 | 0.912 | 1.02 | 0.904 | 0.602 | 0.634 | 0.537 | 0.55 | 0.418 |
| NCI-H1666 | 1.02 | 0.915 | 0.632 | 0.35 | 0.38 | 1.03 | 1.02 | 0.987 | 0.913 | 0.797 | 0.966 | 1.03 | 0.984 | 0.95 | 1.07 | 0.914 | 0.848 | 0.85 | 0.813 | 0.787 |
| NCI-H520 | 0.706 | 0.563 | 0.533 | 0.24 | 0.243 | 1.01 | 0.915 | 0.947 | 0.962 | 0.822 | 1.21 | 0.979 | 0.932 | 1.22 | 1.03 | 0.856 | 0.812 | 0.724 | 0.766 | 0.484 |
